# Reference: patent publication US8530507B2, “Use of levo-ornidazole in the preparation of anti-anaerobic bacteria infection drugs” (priority 2005, dated 2013)
# How the values were obtained:
# mice [1] = experiment: Effect on the coordination of balancing in mice; format: in vivo; settings: intravenous injection
# Method: Experiments were conducted in 9 administration groups, L-, D- and racemic ornidazole were administered to them at doses of 40, 80 and 160 mg/kg. Positive control group received chlorpromazine at a dose of 3 mg/kg.
# mice [2] = experiment: Hypnotic effect of intravenous injection in mice (righting reflex); format: in vivo; settings: mice, within 30 minutes
# Method: White mice, half males and half females, fasted for eight hours. The disappearance of righting reflex in mice was observed. The number of animals who lost their righting reflex was recorded in 30 minutes after drug administration.
# mice [3] = experiment: Effects on spontaneous activities in mice; format: in vivo; settings: for spontaneous activity compared with the vehicle control group: recorded at 0.5, 1, 2, 3 and 4 hours
# Method: Chlorpromazine was administered at dose of […] in the positive control group, and the same volume of propylene glycol containing 0.9% sodium chloride injection was administered in the vehicle control group. Spontaneous activity was recorded at 0.5, 1, 2, 3 and 4 hours after drug administration. The injection volume was 0.2 ml/10 g and the administration rate was 0.2 ml/10 sec.
# Fusobacterium nucleatum = experiment: In vitro MIC determination, clinical anaerobic strains; format: cell-based; settings: 11 clinical strains, GAM broth, 72 hours anaerobic incubation at 35° C.
# Method: (§1) Experimental strains: isolated from clinical specimens, and species identification were conducted.
# (§2) Bacilli preparation: 4˜5 bacteria colonies with same pattern selected from anaerobic GAM plate were inoculated in GAM broth with inoculating loop. The bacteria was incubated at 35° C. under anaerobic condition until a slight turbidity was attained, and adjusted by means of sterilized saline (deoxygenated) so as to attain a turbidity equivalent to the No. 0.5 McFarland turbidity tube, then diluted with GAM broth (at 1:200) for later use.
# (§3) MIC (Minimum Inhibitory Concentration) determination: the testing drugs and control drugs were diluted with GAM broth to different concentrations in the test tubes, followed by addition of equal volume of diluted Bacilli (at 1:200), MIC values were read 72 hours after anaerobic incubation at 35° C.
# Peptostreptococcus = experiment: as above; format: cell-based; settings: 35 clinical strains, GAM broth, 72 hours anaerobic incubation at 35° C.
# Method: as §1, §2, §3
# Bacteroides = experiment: as above; format: cell-based; settings: 40 clinical strains, GAM broth, 72 hours anaerobic incubation at 35° C.
# Method: as §1, §2, §3
# [4] = tested on: peptostreptococcus (including Escherichia coli); experiment: Abdominal infection model in mice, ED50; format: in vivo, Kunming white mice; settings: death observed 7 days
# Method: (§4) Kunming white mice, body weight of 20±2 g, half males and half females. 10 mice in each dose group with half females and half males. Abdominal infection models were prepared with the entire animal (mice) and treatments were conducted with the testing drugs. The therapeutical efficacy was observed and expressed as ED50 (half effective dose). Drugs were administered twice by oral gavage (administered immediately after infection for one and 6 hours after infection for the other one). The death status of animals was observed consecutively for seven days after infection and being treated.
# [5] = tested on: bacteroides (including Escherichia coli) infection; experiment: Abdominal infection model in mice, ED50; format: in vivo, Kunming white mice; settings: death observed 7 days
# Method: as §4
# Kunming mice = experiment: Acute toxicology test, LD50 in mice (Bliss method); format: in vivo; settings: for LD50: observed 14 days; for Number of dead animals: 10 animals
# Method: Kunming mice, half males and half females, with body weights of 18˜22 g, were administered the testing drug solution by injection 8 hours after fasting. The death status of animals was consecutively observed for 14 days after administration.
# [6] = In vivo pharmacokinetics in Beagle dogs
# Method: The clinical dose of ornidazole is 500 mg for human. By calculating, based on body surface area, the pharmacokinetic experimental dose in Beagle dogs was 13 mg/kg in vivo. Six adult beagle dogs (half males and half females, body weight of 9˜11.5 kg) were randomly divided into three groups. According to crossover design, intravenous injection of L-, D-, and racemic ornidazole were administered in turn to each dog every other week (with one week washout period in between). 2 ml of blood was collected from the vein located at the forelimb of the dogs before drug administration and 0.083, 0.5, 1.0, 2.0, 4.0, 6.0, 8.0, 12.0, 16.0, 24.0 hours after drug administration, which was then placed in the heparinized tube, followed by centrifugation to obtain the plasma. Plasma concentration of drug was determined by HPLC. Pharmacokinetics parameters were estimated using the non-compartmental models. The corresponding pharmacokinetics parameters were obtained by BAPP2.0 using the data of plasma concentration of blood with time obtained above.
# [7] = oral gavage twice (immediately and 6 hours after infection)
# [8] = beagle dogs, individual intravenous dose 13 mg/kg, plasma
smiles,measurement,setting,value
"Cc1ncc([N+](=O)[O-])n1C[C@H](O)CCl [L-ornidazole, 1-(3-chloro-2-S-(−)-hydroxypropyl)-2-methyl-5-nitroimidazole]",effect on the coordination and balance (number of falling animals),mice [1]; 160 mg/kg,no significant effect
same,"effect on the coordination and balance, compared with the vehicle control group",mice [1]; doses of 40 and 80 mg/kg,no significant effect
same,number of mice with loss in righting reflex,mice [2]; individual dose of 160 mg/kg intravenous,No loss in righting reflex
same,loss in righting reflex,mice [2]; individual dose of 40 or 80 mg/kg intravenous,No loss in righting reflex
same,spontaneous activity compared with the vehicle control group,mice [3]; 40 mg/kg intravenous,significant reduction in spontaneous activity was not observed
same,recovery of spontaneous activity,mice [3]; 80 mg/kg intravenous,gradually become normal after 2 hours
same,spontaneous activity compared with the vehicle control group,mice [3]; 80 mg/kg intravenous,reduced significantly at 0.5 and 1 hour
same,recovery of spontaneous activity,mice [3]; 160 mg/kg intravenous,gradually become normal after 3 hours
same,spontaneous activity compared with the vehicle control group,mice [3]; 160 mg/kg intravenous,"reduced significantly at 0.5, 1 and 2 hours"
same,MIC50,Fusobacterium nucleatum,2.0 µg/mL
same,MIC90,Fusobacterium nucleatum,16.0 µg/mL
same,MIC Range,Fusobacterium nucleatum,1.0~16.0 mg/L
same,MIC50,Peptostreptococcus,4.0 µg/mL
same,MIC90,Peptostreptococcus,8.0 µg/mL
same,MIC Range,Peptostreptococcus,2.0~32.0 mg/L
same,MIC50,Bacteroides,4.0 µg/mL
same,MIC90,Bacteroides,8.0 µg/mL
same,MIC Range,Bacteroides,20~16.0 mg/L
same,ED50 (half effective dose),[4]; [7],42.0 mg/kg
same,95% CI of ED50,[4]; oral gavage twice,50.9˜34.6 mg/kg
same,ED50 (half effective dose),[5]; [7],31.0 mg/kg
same,95% CI of ED50,[5]; oral gavage twice,43.3˜22.2 mg/kg
same,LD50,Kunming mice; intraperitoneal injection,1378 mg/kg
same,Death rate,"Kunming mice; intraperitoneal, 1044 mg/kg",0%
same,Probability units (Y),"Kunming mice; intraperitoneal, 1044 mg/kg",3.27
same,Number of dead animals,"Kunming mice; intraperitoneal, 1044 mg/kg",0
same,Death rate,"Kunming mice; intraperitoneal, 1228 mg/kg",30%
same,Probability units (Y),"Kunming mice; intraperitoneal, 1228 mg/kg",4.24
same,Number of dead animals,"Kunming mice; intraperitoneal, 1228 mg/kg",3
same,Death rate,"Kunming mice; intraperitoneal, 1445 mg/kg",60%
same,Probability units (Y),"Kunming mice; intraperitoneal, 1445 mg/kg",5.20
same,Number of dead animals,"Kunming mice; intraperitoneal, 1445 mg/kg",6
same,Death rate,"Kunming mice; intraperitoneal, 1700 mg/kg",90%
same,Probability units (Y),"Kunming mice; intraperitoneal, 1700 mg/kg",6.17
same,Number of dead animals,"Kunming mice; intraperitoneal, 1700 mg/kg",9
same,Death rate,"Kunming mice; intraperitoneal, 2000 mg/kg",100%
same,Probability units (Y),"Kunming mice; intraperitoneal, 2000 mg/kg",7.13
same,Number of dead animals,"Kunming mice; intraperitoneal, 2000 mg/kg",10
same,LD50,Kunming mice; intravenous injection,332 mg/kg
same,Death rate,"Kunming mice; intravenous, 243 mg/kg",0%
same,Probability units (Y),"Kunming mice; intravenous, 243 mg/kg",1.06
same,Number of dead animals,"Kunming mice; intravenous, 243 mg/kg",0
same,Death rate,"Kunming mice; intravenous, 270 mg/kg",0%
same,Probability units (Y),"Kunming mice; intravenous, 270 mg/kg",3.04
same,Number of dead animals,"Kunming mice; intravenous, 270 mg/kg",0
same,Death rate,"Kunming mice; intravenous, 300 mg/kg",20%
same,Probability units (Y),"Kunming mice; intravenous, 300 mg/kg",3.72
same,Number of dead animals,"Kunming mice; intravenous, 300 mg/kg",2
same,Death rate,"Kunming mice; intravenous, 333 mg/kg",30%
same,Probability units (Y),"Kunming mice; intravenous, 333 mg/kg",5.05
same,Number of dead animals,"Kunming mice; intravenous, 333 mg/kg",3
same,Death rate,"Kunming mice; intravenous, 370 mg/kg",100%
same,Probability units (Y),"Kunming mice; intravenous, 370 mg/kg",6.38
same,Number of dead animals,"Kunming mice; intravenous, 370 mg/kg",10
same,Death rate,"Kunming mice; oral gavage, 655.4 mg/kg",0%
same,Probability units (Y),"Kunming mice; oral gavage, 655.4 mg/kg",2.87
same,Death rate,"Kunming mice; oral gavage, 819.2 mg/kg",10%
same,Probability units (Y),"Kunming mice; oral gavage, 819.2 mg/kg",3.86
same,Death rate,"Kunming mice; oral gavage, 1024 mg/kg",40%
same,Probability units (Y),"Kunming mice; oral gavage, 1024 mg/kg",4.86
same,Probability units (Y),"Kunming mice; oral gavage, 1280 mg/kg",5.86
same,Death rate,"Kunming mice; oral gavage, 1600 mg/kg",100%
same,Number of dead animals,"Kunming mice; oral gavage, 1600 mg/kg",10
same,LD50,Kunming mice; oral gavage,1069 mg/kg
same,AUC0-t (area under curve),[6]; [8],90940 ± 8330 ng·h/mL
same,Cl (clearance),[6]; [8],1.22 ± 0.13 L/h
same,MRT (mean retention time of drugs),[6]; [8],10.06 ± 1.57 h
same,Vβ (elimination volume of distribution),[6]; [8],12.23 ± 1.84 L
same,t1/2 (half life),"[6]; beagle dogs, individual intravenous dose 13 mg/kg, plasma, HPLC, non-compartmental",6.97 ± 1.09 h
same,in vivo transformation of enantiomers between L- and D-ornidazole,"[6]; dog, in vivo, iv",not occurred
